Assay results: ChEMBL document CHEMBL1687887, “Evolution of potent and stable placental-growth-factor-1-targeting CovX-bodies from phage display peptide discovery” (J Med Chem, 2011)
Numbered stars: 1 amine (or outer) side, 2 acyl side, 3 side chain; on linkers, the order of the positions; unused ones are H or OH. Bridge positions count the residues as written; N and C are the ends. Square brackets hold non-standard residues; d marks the D form. Peptide text beside a SMILES is read from it. * marks the point of attachment. X2 = NCCCC[C@H](N[*:1])C(=O)NC(=O)COCC(=O)[*:2]; X1 = O=C(COCC(=O)*)Nc1ccc(CCC(=O)N2CCC2=O)cc1; X3 = O=C(CCc1ccc(N*)cc1)N1CCC1=O; Aad = N[C@@H](CCCC(=O)O)C(=O)O

These compounds were tested against T1, Placenta growth factor (Homo sapiens, UniProt P49763) (assay: Inhibition of human PlGF-1-VEGFR-1 interaction by ELISA). Conditions: not given; call rule not given here.
T1 sequence (P49763 whole entry): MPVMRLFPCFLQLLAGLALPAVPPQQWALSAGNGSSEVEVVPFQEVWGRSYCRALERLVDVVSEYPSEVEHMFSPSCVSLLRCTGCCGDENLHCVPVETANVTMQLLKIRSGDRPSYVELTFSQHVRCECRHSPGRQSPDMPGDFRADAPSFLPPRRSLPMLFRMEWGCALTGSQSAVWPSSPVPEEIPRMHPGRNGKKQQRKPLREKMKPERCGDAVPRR

SMILES	IC50 [µM]
CSCC[C@H](NC(=O)[C@@H](NC(=O)[C@H](CCCCN)NC(=O)[C@@H]1CSSC[C@H](NC(=O)[C@@H](NC(=O)[C@H](CC(=O)O)NC(=O)[C@H](Cc2ccccc2)NC(C)=O)C(C)C)C(=O)N[C@@H](CCCCN)C(=O)N[C@@H](Cc2c[nH]c3ccccc23)C(=O)N[C@@H](C(C)C)C(=O)NCC(=O)N[C@@H](CC(C)C)C(=O)N2CCC[C@H]2C(=O)N[C@@H](Cc2cnc[nH]2)C(=O)N1)C(C)C)C(N)=O (Ac-FDVCKWVGLPHCKVM-NH2; disulfide 4-12)	6
CSCC[C@H](NC(=O)[C@H](CCCCN)NC(=O)[C@@H]1CSSC[C@H](NC(=O)[C@@H](NC(=O)[C@H](CC(=O)O)NC(=O)[C@H](Cc2ccccc2)NC(C)=O)C(C)C)C(=O)N[C@@H](CCCCN)C(=O)N[C@@H](Cc2c[nH]c3ccccc23)C(=O)N[C@@H](C(C)C)C(=O)N[C@@H]([C@@H](C)O)C(=O)N[C@@H](CC(C)C)C(=O)N2CCC[C@H]2C(=O)N[C@@H](Cc2cnc[nH]2)C(=O)N1)C(=O)N[C@@H](CCCC(N)=O)C(N)=O (Ac-FDVCKWVTLPHCKM[Aad](NH2)-NH2; disulfide 4-12)	1
CSCC[C@H](NC(=O)[C@@H](NC(=O)[C@H](CCCNC(=N)N)NC(=O)[C@@H]1CSSC[C@H](NC(=O)[C@@H](NC(=O)[C@H](CC(=O)O)NC(=O)[C@H](Cc2ccccc2)NC(C)=O)C(C)C)C(=O)N[C@@H](CCCCN)C(=O)N[C@@H](Cc2c[nH]c3ccccc23)C(=O)N[C@@H](C(C)C)C(=O)N[C@@H]([C@@H](C)O)C(=O)N[C@@H](CC(C)C)C(=O)N2CCC[C@H]2C(=O)N[C@@H](Cc2cnc[nH]2)C(=O)N1)C(C)C)C(N)=O (Ac-FDVCKWVTLPHCRVM-NH2; disulfide 4-12)	5
CSCC[C@H](NC(=O)[C@@H](NC(=O)[C@H](CCCN=C(N)N)NC(=O)[C@@H]1CSSC[C@H](NC(=O)[C@@H](NC(=O)[C@H](CC(=O)O)NC(=O)[C@H](Cc2ccccc2)NC(C)=O)C(C)C)C(=O)N[C@@H](CC(N)=O)C(=O)N[C@@H](Cc2c[nH]c3ccccc23)C(=O)N[C@@H](C(C)C)C(=O)NCC(=O)N[C@@H](CC(C)C)C(=O)N[C@@H](C)C(=O)N[C@@H](Cc2cnc[nH]2)C(=O)N1)C(C)C)C(N)=O (Ac-FDVCNWVGLAHCRVM-NH2; disulfide 4-12)	5
CSCC[C@H](NC(=O)[C@@H](NC(=O)[C@H](CCCNC(=N)N)NC(=O)[C@@H]1CSSC[C@H](NC(=O)[C@@H](NC(=O)[C@H](CC(=O)O)NC(=O)[C@H](Cc2ccccc2)NC(C)=O)C(C)C)C(=O)N[C@@H](CC(N)=O)C(=O)N[C@@H](Cc2c[nH]c3ccccc23)C(=O)N[C@@H](C(C)C)C(=O)NCC(=O)N[C@@H](CC(C)C)C(=O)N2CCC[C@H]2C(=O)N[C@@H](Cc2cnc[nH]2)C(=O)N1)C(C)C)C(N)=O (Ac-FDVCNWVGLPHCRVM-NH2; disulfide 4-12)	9
CSCC[C@H](NC(=O)[C@H](CCCCN)NC(=O)[C@@H]1CSSC[C@H](NC(=O)[C@@H](NC(=O)[C@H](CC(=O)O)NC(=O)[C@H](Cc2ccccc2)NC(C)=O)C(C)C)C(=O)N[C@@H](CC(N)=O)C(=O)N[C@@H](Cc2c[nH]c3ccccc23)C(=O)N[C@@H](C(C)C)C(=O)N[C@@H]([C@@H](C)O)C(=O)N[C@@H](CC(C)C)C(=O)N2CCC[C@H]2C(=O)N[C@@H](Cc2cnc[nH]2)C(=O)N1)C(=O)N[C@@H](CCCC(N)=O)C(N)=O (Ac-FDVCNWVTLPHCKM[Aad](NH2)-NH2; disulfide 4-12)	1
CSCC[C@H](NC(=O)[C@@H](NC(=O)[C@H](CCCCN)NC(=O)[C@@H]1CSSC[C@H](NC(=O)[C@@H](NC(=O)[C@H](CC(=O)O)NC(=O)[C@H](Cc2ccccc2)NC(C)=O)C(C)C)C(=O)N[C@@H](CC(N)=O)C(=O)N[C@@H](Cc2c[nH]c3ccccc23)C(=O)N[C@@H](C(C)C)C(=O)N[C@@H]([C@@H](C)O)C(=O)N[C@@H](CC(C)C)C(=O)N2CCC[C@H]2C(=O)N[C@@H](Cc2cnc[nH]2)C(=O)N1)C(C)C)C(N)=O (Ac-FDVCNWVTLPHCKVM-NH2; disulfide 4-12)	1
CSCC[C@H](NC(=O)[C@H](Cc1ccccc1)NC(C)=O)C(=O)N[C@H](C(=O)N[C@H]1CSSC[C@@H](C(=O)N2CCC[C@H]2C(=O)N[C@@H](CCSC)C(=O)N[C@@H](CCC(N)=O)C(N)=O)NC(=O)[C@H](Cc2c[nH]c3ccccc23)NC(=O)[C@@H]2CCCN2C(=O)[C@H](CC(C)C)NC(=O)[C@H]([C@@H](C)O)NC(=O)[C@H](C(C)C)NC(=O)[C@H](Cc2ccc(O)cc2)NC(=O)[C@H](CC(N)=O)NC1=O)C(C)C (Ac-FMVCNYVTLPWCPMQ-NH2; disulfide 4-12)	19
CC[C@H](C)[C@H](NC(=O)[C@H](C)NC(=O)[C@H](CC(C)C)NC(=O)[C@@H]1CSSC[C@H](NC(=O)[C@@H](NC(=O)[C@H](CC(=O)O)NC(=O)[C@H](CC(C)C)NC(C)=O)C(C)C)C(=O)N[C@@H](CC(C)C)C(=O)N[C@@H](Cc2c[nH]c3ccccc23)C(=O)N[C@@H](C(C)C)C(=O)N[C@@H](CO)C(=O)N[C@@H](CC(C)C)C(=O)N2CCC[C@H]2C(=O)N[C@@H](Cc2cnc[nH]2)C(=O)N1)C(N)=O (Ac-LDVCLWVSLPHCLAI-NH2; disulfide 4-12)	100
CC[C@H](C)[C@H](NC(=O)[C@@H]1CSSC[C@H](NC(=O)[C@@H](NC(=O)[C@H](CCC(N)=O)NC(=O)[C@H](Cc2c[nH]c3ccccc23)NC(C)=O)[C@@H](C)CC)C(=O)N[C@@H](CC(=O)O)C(=O)N[C@@H]([C@@H](C)CC)C(=O)N[C@@H](CC(C)C)C(=O)N[C@@H]([C@@H](C)O)C(=O)N[C@@H](CC(C)C)C(=O)N2CCC[C@H]2C(=O)N[C@@H](Cc2cnc[nH]2)C(=O)N1)C(=O)N[C@@H](Cc1ccccc1)C(=O)N[C@@H](CC(N)=O)C(N)=O (Ac-WQICDILTLPHCIFN-NH2; disulfide 4-12)	100
CC[C@H](C)[C@H](NC(=O)[C@H](CC(=O)O)NC(=O)[C@H](Cc1ccc(O)cc1)NC(C)=O)C(=O)N[C@H]1CSSC[C@@H](C(=O)N[C@@H](Cc2ccccc2)C(=O)N[C@@H](C)C(=O)N[C@H](C(N)=O)C(C)C)NC(=O)[C@H](Cc2cnc[nH]2)NC(=O)[C@@H]2CCCN2C(=O)[C@H](CC(C)C)NC(=O)[C@H](CCCNC(=N)N)NC(=O)[C@H]([C@@H](C)CC)NC(=O)[C@H](Cc2ccc(O)cc2)NC(=O)[C@H](Cc2cnc[nH]2)NC1=O (Ac-YDICHYIRLPHCFAV-NH2; disulfide 4-12)	100

What follows are compounds tested against T1, Placenta growth factor (assay: Binding affinity to human PlGF-1). Conditions: not given.

SMILES	Kd
N=C(N)NCCC[C@@H]1NC(=O)[C@H](CCCCNC(=O)COCC(=O)Nc2ccc(CCC(=O)N3CCC3=O)cc2)NC(=O)[C@@H](Cc2ccccc2)NC(=O)[C@H](CC(=O)O)NC(=O)CNC1=O	Not Active

Same assay, conditions: read-out: Kd

SMILES	Kd [µM]
CC(=O)NCCCC[C@@H]1NC(=O)[C@@H](NC(=O)[C@@H](NC(=O)[C@H](CC(=O)O)NC(=O)[C@H](Cc2ccccc2)NC(C)=O)C(C)C)CSSC[C@@H](C(=O)N[C@@H](CCCCNC(C)=O)C(=O)N[C@H](C(=O)N[C@@H](CCCCN)C(=O)NC(=O)COCC(=O)Nc2ccc(CCC(=O)N3CCC3=O)cc2)C(C)C)NC(=O)[C@H](Cc2cnc[nH]2)NC(=O)[C@@H]2CCCN2C(=O)[C@H](CC(C)C)NC(=O)[C@H]([C@@H](C)O)NC(=O)[C@H](C(C)C)NC(=O)[C@H](Cc2c[nH]c3ccccc23)NC1=O (Ac-FDVCK(Ac)WVTLPHCK(Ac)V[X2]-X3; disulfide 4-12)	0.008
CC(=O)NCCCC[C@H](NC(=O)[C@@H]1CSSC[C@H](NC(=O)[C@@H](NC(=O)[C@H](CC(=O)O)NC(=O)[C@H](Cc2ccccc2)NC(C)=O)C(C)C)C(=O)N[C@@H](CC(N)=O)C(=O)N[C@@H](Cc2c[nH]c3ccccc23)C(=O)N[C@@H](C(C)C)C(=O)N[C@@H]([C@@H](C)O)C(=O)N[C@@H](CC(C)C)C(=O)N2CCC[C@H]2C(=O)N[C@@H](Cc2cnc[nH]2)C(=O)N1)C(=O)N[C@H](C(=O)N[C@@H](CCCCN)C(=O)NC(=O)COCC(=O)Nc1ccc(CCC(=O)N2CCC2=O)cc1)C(C)C (Ac-FDVCNWVTLPHCK(Ac)V[X2]-X3; disulfide 4-12)	0.005
CSCC[C@H](NC(=O)[C@@H](NC(=O)[C@H](CCCCNC(C)=O)NC(=O)[C@@H]1CSSC[C@H](NC(=O)[C@@H](NC(=O)[C@H](CCCCNC(=O)COCC(=O)Nc2ccc(CCC(=O)N3CCC3=O)cc2)NC(=O)[C@H](Cc2ccccc2)NC(C)=O)C(C)C)C(=O)N[C@@H](CC(N)=O)C(=O)N[C@@H](Cc2c[nH]c3ccccc23)C(=O)N[C@@H](C(C)C)C(=O)N[C@@H]([C@@H](C)O)C(=O)N[C@@H](CC(C)C)C(=O)N2CCC[C@H]2C(=O)N[C@@H](Cc2cnc[nH]2)C(=O)N1)C(C)C)C(N)=O (Ac-FK(X1)VCNWVTLPHCK(Ac)VM-NH2; disulfide 4-12)	> 1
CSCC[C@H](NC(=O)[C@@H](NC(=O)[C@H](CCCCNC(C)=O)NC(=O)[C@@H]1CSSC[C@H](NC(=O)[C@@H](NC(=O)[C@H](CC(=O)O)NC(=O)[C@H](CCCCNC(=O)COCC(=O)Nc2ccc(CCC(=O)N3CCC3=O)cc2)NC(C)=O)C(C)C)C(=O)N[C@@H](CC(N)=O)C(=O)N[C@@H](Cc2c[nH]c3ccccc23)C(=O)N[C@@H](C(C)C)C(=O)N[C@@H]([C@@H](C)O)C(=O)N[C@@H](CC(C)C)C(=O)N2CCC[C@H]2C(=O)N[C@@H](Cc2cnc[nH]2)C(=O)N1)C(C)C)C(N)=O (Ac-K(X1)DVCNWVTLPHCK(Ac)VM-NH2; disulfide 4-12)	> 1
CSCC[C@H](NC(=O)[C@@H](NC(=O)[C@H](CCCCNC(C)=O)NC(=O)[C@@H]1CSSC[C@H](NC(=O)[C@@H](NC(=O)[C@H](CC(=O)O)NC(=O)[C@H](Cc2ccccc2)NC(=O)COCC(=O)Nc2ccc(CCC(=O)N3CCC3=O)cc2)C(C)C)C(=O)N[C@@H](CC(N)=O)C(=O)N[C@@H](Cc2c[nH]c3ccccc23)C(=O)N[C@@H](C(C)C)C(=O)N[C@@H]([C@@H](C)O)C(=O)N[C@@H](CC(C)C)C(=O)N2CCC[C@H]2C(=O)N[C@@H](Cc2cnc[nH]2)C(=O)N1)C(C)C)C(N)=O (X1-FDVCNWVTLPHCK(Ac)VM-NH2; disulfide 4-12)	> 1
